From patent US9834571B2, “Compounds for inhibiting cell proliferation in EGFR-driven cancers” (ARIAD Pharmaceuticals, Inc., priority 2012, dated 2017)
pIC50: −log10 of the molar value.

Legend:
[1] = target: human EGFR (native sequence) (Homo sapiens, UniProt P00533); test: Kinase inhibitory activity against human EGFR (native sequence); assay type: biochemical; conditions: human EGFR native sequence; 10 μM ATP; read-out: IC50 for kinase inhibition, EGFR
Method: (§1) Kinase inhibitory activity of the compounds was measured against human EGFR (native sequence) and against EGFR bearing the L858R mution and the L858R/T790M double mutation (EGFR, L858R, and L858R/T790M, respectively in Table 1). Additional assays can be conducted with EGFR deletion mutants such as delE746-A750 with or without the additional T790M mutation. Assay conditions included 10 pt curves with 3 μM top concentration (singlicates) and 10 μM ATP.

EGFR L858R = EGFR L858R (Homo sapiens, UniProt P00533, L858R); test: Kinase inhibitory activity against EGFR bearing the L858R mutation; assay type: biochemical; conditions: EGFR L858R; 10 μM ATP; read-out: IC50 for kinase inhibition, EGFR L858R
Sequence of EGFR L858R (P00533 25-1210 L858R): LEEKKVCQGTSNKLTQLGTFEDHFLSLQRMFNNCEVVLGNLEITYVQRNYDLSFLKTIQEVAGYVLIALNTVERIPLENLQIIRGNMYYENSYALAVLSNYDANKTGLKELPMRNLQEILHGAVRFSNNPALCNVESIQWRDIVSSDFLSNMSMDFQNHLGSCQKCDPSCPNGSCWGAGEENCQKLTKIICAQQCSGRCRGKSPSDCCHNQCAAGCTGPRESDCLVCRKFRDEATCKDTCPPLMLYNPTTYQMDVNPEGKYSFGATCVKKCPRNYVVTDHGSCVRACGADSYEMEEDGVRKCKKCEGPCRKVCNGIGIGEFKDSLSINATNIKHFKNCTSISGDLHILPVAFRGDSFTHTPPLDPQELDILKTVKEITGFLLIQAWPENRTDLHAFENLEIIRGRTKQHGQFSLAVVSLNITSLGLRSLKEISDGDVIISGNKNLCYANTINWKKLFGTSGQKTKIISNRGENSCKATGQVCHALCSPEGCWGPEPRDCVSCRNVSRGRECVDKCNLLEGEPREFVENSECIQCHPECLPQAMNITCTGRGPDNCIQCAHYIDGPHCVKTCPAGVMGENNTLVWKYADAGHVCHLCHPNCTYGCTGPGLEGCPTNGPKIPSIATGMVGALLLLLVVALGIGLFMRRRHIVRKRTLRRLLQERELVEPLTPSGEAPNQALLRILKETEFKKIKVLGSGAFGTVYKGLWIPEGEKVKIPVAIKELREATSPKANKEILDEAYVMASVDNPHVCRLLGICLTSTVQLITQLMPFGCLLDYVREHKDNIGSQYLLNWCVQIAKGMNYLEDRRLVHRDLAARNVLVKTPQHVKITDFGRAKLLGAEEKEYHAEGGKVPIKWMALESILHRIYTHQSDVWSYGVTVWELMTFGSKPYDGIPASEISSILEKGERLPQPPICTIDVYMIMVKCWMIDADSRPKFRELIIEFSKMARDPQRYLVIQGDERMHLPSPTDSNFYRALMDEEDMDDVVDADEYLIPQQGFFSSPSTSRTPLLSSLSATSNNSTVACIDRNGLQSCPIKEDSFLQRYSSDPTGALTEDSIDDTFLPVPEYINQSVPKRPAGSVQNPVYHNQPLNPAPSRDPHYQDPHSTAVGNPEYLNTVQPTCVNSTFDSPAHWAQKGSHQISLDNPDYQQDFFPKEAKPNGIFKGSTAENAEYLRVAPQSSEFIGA
Method: as §1

EGFR L858R/T790M = EGFR L858R/T790M (Homo sapiens, UniProt P00533, L858R/T790M); test: Kinase inhibitory activity against EGFR bearing the L858R/T790M double mutation; assay type: biochemical; conditions: EGFR L858R/T790M double mutation; 10 μM ATP; read-out: IC50 for kinase inhibition, EGFR L858R T790M
Sequence of EGFR L858R/T790M (P00533 25-1210 T790M/L858R): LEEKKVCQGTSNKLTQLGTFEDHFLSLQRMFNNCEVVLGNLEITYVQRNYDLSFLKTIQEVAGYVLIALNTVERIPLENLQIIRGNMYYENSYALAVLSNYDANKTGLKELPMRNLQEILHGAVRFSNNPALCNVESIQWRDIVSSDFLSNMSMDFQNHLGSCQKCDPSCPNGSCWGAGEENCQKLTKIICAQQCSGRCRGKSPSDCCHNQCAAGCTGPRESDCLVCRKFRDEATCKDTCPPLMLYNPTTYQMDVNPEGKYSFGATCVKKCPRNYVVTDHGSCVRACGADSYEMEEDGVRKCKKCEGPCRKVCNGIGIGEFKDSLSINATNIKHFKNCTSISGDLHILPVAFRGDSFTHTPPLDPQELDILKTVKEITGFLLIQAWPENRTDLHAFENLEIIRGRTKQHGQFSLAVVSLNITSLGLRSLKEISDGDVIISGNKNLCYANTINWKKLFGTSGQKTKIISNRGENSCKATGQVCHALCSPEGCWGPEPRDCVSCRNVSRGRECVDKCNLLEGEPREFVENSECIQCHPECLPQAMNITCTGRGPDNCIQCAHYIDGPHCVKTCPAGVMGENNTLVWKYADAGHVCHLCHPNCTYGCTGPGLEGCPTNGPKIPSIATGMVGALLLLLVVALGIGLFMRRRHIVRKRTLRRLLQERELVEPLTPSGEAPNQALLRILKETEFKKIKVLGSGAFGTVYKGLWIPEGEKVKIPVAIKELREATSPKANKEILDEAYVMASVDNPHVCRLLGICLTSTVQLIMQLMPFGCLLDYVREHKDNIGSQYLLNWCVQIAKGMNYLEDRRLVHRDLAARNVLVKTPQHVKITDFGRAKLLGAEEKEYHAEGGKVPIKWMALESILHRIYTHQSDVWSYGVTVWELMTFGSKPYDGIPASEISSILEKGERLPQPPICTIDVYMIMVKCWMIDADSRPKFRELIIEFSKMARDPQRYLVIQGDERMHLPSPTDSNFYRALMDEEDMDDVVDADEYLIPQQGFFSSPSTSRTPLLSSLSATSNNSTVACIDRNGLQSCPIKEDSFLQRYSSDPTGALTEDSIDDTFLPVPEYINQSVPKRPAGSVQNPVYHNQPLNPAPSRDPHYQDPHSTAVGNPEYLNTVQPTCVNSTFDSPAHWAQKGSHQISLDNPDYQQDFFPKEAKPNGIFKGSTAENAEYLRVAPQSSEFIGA
Method: as §1

[2] = target: T1, BaF3 cells expressing the target EGFR mutations (Homo sapiens, UniProt P00533, T790M, cells depend on it, form not given); test: Antiproliferative activity (MTT) against BaF3 cells expressing the target EGFR mutations; assay type: cell-based; conditions: BAF3 EGFR DEL T790M PURO POOL cells, read-out: IC50, BAF3 EGFR DEL T790M PURO POOL
T1 construct: IC50, BAF3 EGFR DEL T790M PURO POOL; other: BAF3 EGFR DEL T790M PURO POOL cells, MTT; other: BAF3 EGFR DEL T790M PURO POOL cells; MTT
T1 sequence (P00533 with tags, fused parts or gaps DEL746-750/T790M, form open): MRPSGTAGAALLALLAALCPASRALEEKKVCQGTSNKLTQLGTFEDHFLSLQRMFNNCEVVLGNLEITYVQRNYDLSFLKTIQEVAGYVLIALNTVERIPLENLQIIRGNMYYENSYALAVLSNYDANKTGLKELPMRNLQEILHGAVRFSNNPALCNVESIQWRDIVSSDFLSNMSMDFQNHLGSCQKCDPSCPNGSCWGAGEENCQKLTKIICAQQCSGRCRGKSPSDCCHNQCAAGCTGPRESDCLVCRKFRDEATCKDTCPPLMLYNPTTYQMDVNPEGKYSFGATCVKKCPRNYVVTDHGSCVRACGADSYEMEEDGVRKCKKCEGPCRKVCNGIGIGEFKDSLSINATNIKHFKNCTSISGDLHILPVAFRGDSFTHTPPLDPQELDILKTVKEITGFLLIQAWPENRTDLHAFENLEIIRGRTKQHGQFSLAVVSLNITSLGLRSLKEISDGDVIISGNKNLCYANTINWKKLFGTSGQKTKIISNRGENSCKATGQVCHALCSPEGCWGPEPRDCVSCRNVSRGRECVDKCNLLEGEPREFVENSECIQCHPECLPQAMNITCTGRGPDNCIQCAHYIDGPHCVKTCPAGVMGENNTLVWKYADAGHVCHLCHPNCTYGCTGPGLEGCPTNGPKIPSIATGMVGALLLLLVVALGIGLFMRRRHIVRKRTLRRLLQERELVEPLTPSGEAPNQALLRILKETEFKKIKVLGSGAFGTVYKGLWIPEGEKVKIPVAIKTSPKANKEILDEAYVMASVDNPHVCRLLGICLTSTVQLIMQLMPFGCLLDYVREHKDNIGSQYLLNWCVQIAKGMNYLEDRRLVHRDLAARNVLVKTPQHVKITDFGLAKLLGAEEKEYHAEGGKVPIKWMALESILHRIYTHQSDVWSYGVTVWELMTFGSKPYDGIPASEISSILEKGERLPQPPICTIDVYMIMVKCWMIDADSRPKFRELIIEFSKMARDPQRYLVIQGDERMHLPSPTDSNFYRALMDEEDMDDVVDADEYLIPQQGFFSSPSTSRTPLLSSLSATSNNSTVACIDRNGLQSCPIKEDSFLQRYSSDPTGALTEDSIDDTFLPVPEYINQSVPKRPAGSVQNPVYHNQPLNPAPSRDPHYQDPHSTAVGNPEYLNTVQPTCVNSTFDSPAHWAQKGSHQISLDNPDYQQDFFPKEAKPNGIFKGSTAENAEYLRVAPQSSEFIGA
Method: (§2) We also assessed the antiproliferative activity of compounds of Formula (I) against BaF3 cells expressing the target EGFR mutations or control (i.e., cell lines expressing wildtype EGFR). Assays were conducted using MTT.

[3] = target: T2, BaF3 cells expressing the target EGFR mutations (Homo sapiens, UniProt P00533, T790M/L858R, cells depend on it); test: as above; assay type: cell-based; conditions: BAF3 EGFR L858R-T790M PURO POOL cells, read-out: IC50, BAF3 EGFR L858R-T790M PURO POOL
T2 construct: IC50, BAF3 EGFR L858R-T790M PURO POOL; other: BAF3 EGFR L858R-T790M PURO POOL cells, MTT; IC50, BAF3 EGFR L858R-T790M PURO POOL; other: BAF3 EGFR L858R-T790M PURO POOL cells; MTT
Method: as §2

[4] = tested on: BaF3 cells expressing wildtype EGFR; test: Antiproliferative activity (MTT) against control BaF3 cells expressing wildtype EGFR; assay type: cell-based; conditions: Mus musculus, BAF3 PARENTAL cells (control)
Method: as §2

Sequence of human EGFR (native sequence) (P00533 25-1210): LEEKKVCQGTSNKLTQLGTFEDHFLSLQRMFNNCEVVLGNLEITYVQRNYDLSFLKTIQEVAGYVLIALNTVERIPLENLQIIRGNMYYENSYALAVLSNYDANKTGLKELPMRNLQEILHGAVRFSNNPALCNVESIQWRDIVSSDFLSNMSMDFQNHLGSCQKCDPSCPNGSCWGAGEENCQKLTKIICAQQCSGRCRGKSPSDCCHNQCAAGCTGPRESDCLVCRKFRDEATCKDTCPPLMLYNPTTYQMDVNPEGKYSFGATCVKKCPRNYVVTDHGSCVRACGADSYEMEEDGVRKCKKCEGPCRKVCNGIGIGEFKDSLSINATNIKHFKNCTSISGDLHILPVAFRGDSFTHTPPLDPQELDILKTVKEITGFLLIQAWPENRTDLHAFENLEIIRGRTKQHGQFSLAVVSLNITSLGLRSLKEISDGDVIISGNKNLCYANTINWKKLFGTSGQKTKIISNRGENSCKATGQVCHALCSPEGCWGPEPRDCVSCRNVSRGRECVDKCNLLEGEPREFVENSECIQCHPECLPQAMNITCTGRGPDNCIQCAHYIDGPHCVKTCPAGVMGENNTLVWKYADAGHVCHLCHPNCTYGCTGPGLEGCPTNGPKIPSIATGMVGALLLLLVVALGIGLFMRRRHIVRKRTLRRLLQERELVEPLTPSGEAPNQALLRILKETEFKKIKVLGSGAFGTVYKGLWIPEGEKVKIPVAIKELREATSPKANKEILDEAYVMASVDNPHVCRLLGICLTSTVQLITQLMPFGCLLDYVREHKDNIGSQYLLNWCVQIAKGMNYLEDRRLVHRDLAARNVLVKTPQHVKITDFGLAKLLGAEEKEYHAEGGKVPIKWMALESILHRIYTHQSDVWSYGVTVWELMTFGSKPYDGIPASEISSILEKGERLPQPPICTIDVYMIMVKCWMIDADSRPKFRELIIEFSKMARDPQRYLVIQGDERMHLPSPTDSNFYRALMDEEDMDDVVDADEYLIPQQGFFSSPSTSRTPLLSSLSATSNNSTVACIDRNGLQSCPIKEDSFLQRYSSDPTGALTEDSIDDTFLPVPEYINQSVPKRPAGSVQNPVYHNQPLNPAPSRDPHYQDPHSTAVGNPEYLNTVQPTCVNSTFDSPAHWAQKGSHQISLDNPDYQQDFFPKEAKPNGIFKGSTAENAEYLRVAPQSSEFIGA

Structure (SMILES) | pIC50 [1] | pIC50 (EGFR L858R) | pIC50 (EGFR L858R/T790M) | GI50 [2] [nM] | GI50 [3] [nM] | pIC50 [4]
C=CC(=O)Nc1cc(Nc2ncc(Cl)c(Nc3ccccc3P(C)(C)=O)n2)c(OC)cc1OCCCN1CCOCC1 [Example 5, N-(5-((5-chloro-4-((2-(dimethylphosphoryl)phenyl)amino)pyrimidin-2-yl)amino)-4-methoxy-2-(3-morpholinopropoxy)phenyl)acrylamide] | 6.60 to 7.00 | > 7.30 | > 7.30 | 101 to 250 | 101 to 250 | ≤ 6.60
C=CC(=O)Nc1cc(Nc2ncc(Cl)c(Nc3ccccc3P(C)(C)=O)n2)c(OC)cc1OCC1CCOCC1 [Example 6, N-(5-((5-chloro-4-((2-(dimethylphosphoryl)phenyl)amino)pyrimidin-2-yl)amino)-4-methoxy-2-((tetrahydro-2H-pyran-4-yl)methoxy)phenyl)acrylamide] | ≤ 6.60 | > 7.30 | 7.00 to 7.30 | 50 to 100 | 101 to 250 | ≤ 6.60
C=CC(=O)Nc1cc(Nc2ncc(Cl)c(Nc3ccccc3P(C)(C)=O)n2)c(OC)cc1OCC1CCCCN1C (stereo not drawn) [Example 7, N-(5-((5-chloro-4-((2-(dimethylphosphoryl)phenyl)amino)pyrimidin-2-yl)amino)-4-methoxy-2-((1-methylpiperidin-2-yl)methoxy)phenyl)acrylamide] | > 7.30 | > 7.30 | > 7.30 | < 50 | < 50 | ≤ 6.60
C=CC(=O)Nc1cc(Nc2ncc(Cl)c(Nc3ccccc3P(C)(C)=O)n2)c(OC)cc1OCCN1CCCCC1 [Example 8, N-(5-((5-chloro-4-((2-(dimethylphosphoryl)phenyl)amino)pyrimidin-2-yl)amino)-4-methoxy-2-(2-(piperidin-1-yl)ethoxy)phenyl)acrylamide] | > 7.30 | > 7.30 | > 7.30 | < 50 | < 50 | ≤ 6.60
C=CC(=O)Nc1cc(Nc2ncc(Cl)c(Nc3ccccc3P(C)(C)=O)n2)c(OC)cc1OC1COC1 [Example 9, N-(5-((5-chloro-4-((2-(dimethylphosphoryl)phenyl)amino)pyrimidin-2-yl)amino)-4-methoxy-2-(oxetan-3-yloxy)phenyl)acrylamide] | ≤ 6.60 | > 7.30 | > 7.30 | < 50 | 50 to 100 | ≤ 6.60
C=CC(=O)Nc1cc(Nc2ncc(Cl)c(Nc3ccccc3P(C)(C)=O)n2)c(OC)cc1OCc1cccnc1 [Example 10, N-(5-((5-chloro-4-((2-(dimethylphosphoryl)phenyl)amino)pyrimidin-2-yl)amino)-4-methoxy-2-(pyridin-3-ylmethoxy)phenyl)acrylamide] | 7.00 to 7.30 | > 7.30 | > 7.30 | 50 to 100 | 101 to 250 | ≤ 6.60
C=CC(=O)Nc1cc(Nc2ncc(Cl)c(Nc3ccccc3P(C)(C)=O)n2)c(OC)cc1OCc1ccncc1 [Example 11, N-(5-((5-chloro-4-((2-(dimethylphosphoryl)phenyl)amino)pyrimidin-2-yl)amino)-4-methoxy-2-(pyridin-4-ylmethoxy)phenyl)acrylamide] | > 7.30 | > 7.30 | > 7.30 | < 50 | 101 to 250 | ≤ 6.60
C=CC(=O)Nc1cc(Nc2ncc(Cl)c(Nc3ccccc3P(C)(C)=O)n2)c(OC)cc1OC1CCCN(C)C1 (stereo not drawn) [Example 12, N-(5-((5-chloro-4-((2-(dimethylphosphoryl)phenyl)amino)pyrimidin-2-yl)amino)-4-methoxy-2-((1-methylpiperidin-3-yl)oxy)phenyl)acrylamide] | > 7.30 | > 7.30 | > 7.30 | < 50 | < 50 | ≤ 6.60
C=CC(=O)Nc1cc(Nc2ncc(Cl)c(Nc3ccccc3P(C)(C)=O)n2)c(OC)cc1OC1CCN(C)C1 (stereo not drawn) [Example 13, N-(5-((5-chloro-4-((2-(dimethylphosphoryl)phenyl)amino)pyrimidin-2-yl)amino)-4-methoxy-2-((1-methylpyrrolidin-3-yl)oxy)phenyl)acrylamide] | > 7.30 | > 7.30 | > 7.30 | < 50 | < 50 | ≤ 6.60
C=CC(=O)Nc1cc(Nc2ncc(Cl)c(Nc3ccccc3P(C)(C)=O)n2)c(OC)cc1OC(COC)CN1CCC1 (stereo not drawn) [Example 15, N-(2-((1-(azetidin-1-yl)-3-methoxypropan-2-yl)oxy)-5-((5-chloro-4-((2-(dimethylphosphoryl)phenyl)amino)pyrimidin-2-yl)amino)-4-methoxyphenyl)acrylamide] | > 7.30 | > 7.30 | > 7.30 | < 50 | < 50 | ≤ 6.60
C=CC(=O)Nc1cc(Nc2ncc(Cl)c(Nc3ccccc3P(C)(C)=O)n2)c(OC)cc1N1CCC(N2CCN(C)CC2)CC1 [Example 22, N-(5-((5-chloro-4-((2-(dimethylphosphoryl)phenyl)amino)pyrimidin-2-yl)amino)-4-methoxy-2-(4-(4-methylpiperazin-1-yl)piperidin-1-yl)phenyl)acrylamide] | > 7.30 | > 7.30 | > 7.30 | 50 to 100 | 50 to 100 | ≤ 6.60
C=CC(=O)Nc1cc(Nc2ncc(Cl)c(Nc3ccccc3P(C)(C)=O)n2)c(OC)cc1N1CCC(N(C)C)CC1 [Example 23, N-(5-((5-chloro-4-((2-(dimethylphosphoryl)phenyl)amino)pyrimidin-2-yl)amino)-2-(4-(dimethylamino)piperidin-1-yl)-4-methoxyphenyl)acrylamide] | > 7.30 | > 7.30 | > 7.30 | < 50 | 101 to 250 | ≤ 6.60
C=CC(=O)Nc1cc(Nc2ncc(Cl)c(Nc3ccccc3P(C)(C)=O)n2)c(OC)cc1N1CCC(N(C)C)C1 (stereo not drawn) [Example 24, N-(5-((5-chloro-4-((2-(dimethylphosphoryl)phenyl)amino)pyrimidin-2-yl)amino)-2-(3-(dimethylamino)pyrrolidin-1-yl)-4-methoxyphenyl)acrylamide] | > 7.30 | > 7.30 | > 7.30 | < 50 | < 50 | ≤ 6.60
C=CC(=O)Nc1cc(Nc2ncc(Cl)c(Nc3ccccc3P(C)(C)=O)n2)c(OC)cc1N1CCCN(C)CC1 [Example 25, N-(5-((5-chloro-4-((2-(dimethylphosphoryl)phenyl)amino)pyrimidin-2-yl)amino)-4-methoxy-2-(4-methyl-1,4-diazepan-1-yl)phenyl)acrylamide] | > 7.30 | > 7.30 | > 7.30 | < 50 | < 50 | ≤ 6.60
C=CC(=O)Nc1cc(Nc2ncc(Cl)c(Nc3ccccc3P(C)(C)=O)n2)c(OC)cc1N1CCN(C2CCN(C)CC2)CC1 [Example 27, N-(5-((5-chloro-4-((2-(dimethylphosphoryl)phenyl)amino)pyrimidin-2-yl)amino)-4-methoxy-2-(4-(1-methylpiperidin-4-yl)piperazin-1-yl)phenyl)acrylamide] | > 7.30 | > 7.30 | > 7.30 | 50 to 100 | 101 to 250 | ≤ 6.60
C=CC(=O)Nc1cc(Nc2ncc(Cl)c(Nc3ccccc3P(C)(C)=O)n2)c(OC)cc1N1CCC(N2CCOCC2)C1 (stereo not drawn) [Example 28, N-(5-((5-chloro-4-((2-(dimethylphosphoryl)phenyl)amino)pyrimidin-2-yl)amino)-4-methoxy-2-(3-morpholinopyrrolidin-1-yl)phenyl)acrylamide] | > 7.30 | > 7.30 | > 7.30 | < 50 | < 50 | ≤ 6.60
C=CC(=O)Nc1cc(Nc2ncc(Cl)c(Nc3ccccc3P(C)(C)=O)n2)c(OC)cc1N1CCCC(N(C)C)C1 (stereo not drawn) [Example 30, N-(5-((5-chloro-4-((2-(dimethylphosphoryl)phenyl)amino)pyrimidin-2-yl)amino)-2-(3-(dimethylamino)piperidin-1-yl)-4-methoxyphenyl)acrylamide] | > 7.30 | > 7.30 | > 7.30 | < 50 | < 50 | ≤ 6.60
